Measured values from patent US9957274B2, “Indane inhibitors of EED and methods of their use” (AbbVie Inc., priority 2016, dated 2018).

Key:
EED = EED (Homo sapiens, UniProt O75530); test: EED TR-FRET Binding Assay (modified LanthaScreen competition assay)
Procedure, shortened: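 Competition binding in a modified LanthaScreen format, in 20 mM Tris-HCl pH 7.5, 200 mM NaCl, 0.01% Tween-20, 10 uM DTT and 0.05% BSA. Reactions ran 1 hour at 25° C before TR-FRET detection.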

[1] = system: H3K27me3 in OCILY19 cells; test: H3K27me3 AlphaLISA assay in OCILY19 cells; assay type: cell-based; settings: Homo sapiens, OCI-LY19, 144 h, 6 days with compound, read-out: OCILY-19 IC50
Description: 5,000 cells were plated into each well of 96-well Corning CellBing cell culture plates and incubated overnight at 37° C. in a humidified CO2 incubator. […] The cell culture plates were then incubated for 6 more days. H3K27me3 AlphaLISA assay was performed on the cell culture samples by using AlphaLISAR® H3K27me3 Cellular Detection Kit (PerkinElmer) and 96-well white half-area plates (PerkinElmer).

H3K27me3 in G401 cells = test: H3K27me3 AlphaLISA assay in G401 cells; assay type: cell-based; settings: Homo sapiens, G-401, 144 h, 6 days with compound
Pfeiffer cells = test: CTG cell viability assay (CellTiter-Glo); assay type: cell-based; settings: Homo sapiens, 240 h; Pfeiffer cells, 10 days with compound, CellTiter-Glo; read-out: Cell Proliferation IC50
Description: 1,000 cells were plated into each well of 96-well Corning CellBing cell culture plates and incubated overnight at 37° C. in a humidified CO2 incubator. […] The cell culture plates were then incubated for 10 more days. CTG cell viability assay was performed on the cell culture samples by using CellTiter-Glo® Luminescent Cell Viability Assay Kit (Promega).

EED, sequence (O75530 whole entry): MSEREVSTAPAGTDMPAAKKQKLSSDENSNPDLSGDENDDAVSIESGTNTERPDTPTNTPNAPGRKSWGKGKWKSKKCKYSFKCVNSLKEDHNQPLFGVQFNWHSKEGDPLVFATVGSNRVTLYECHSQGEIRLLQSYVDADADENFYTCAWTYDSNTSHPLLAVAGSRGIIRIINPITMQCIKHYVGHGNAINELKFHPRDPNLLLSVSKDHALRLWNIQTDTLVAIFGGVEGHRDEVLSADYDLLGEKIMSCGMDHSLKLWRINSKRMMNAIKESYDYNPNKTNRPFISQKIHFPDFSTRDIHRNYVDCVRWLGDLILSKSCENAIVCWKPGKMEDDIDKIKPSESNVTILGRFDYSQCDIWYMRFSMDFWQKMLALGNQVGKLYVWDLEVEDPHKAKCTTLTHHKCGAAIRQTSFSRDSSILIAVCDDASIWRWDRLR

Structure (SMILES)	IC50 (EED) [µM]	IC50 [1] [µM]	IC50 (H3K27me3 in G401 cells) [µM]	IC50 (Pfeiffer cells) [µM]
CN(C)[C@H]1CN(C2CCc3cccc(F)c32)C[C@@H]1c1cn(C)c2c(C(=O)N3CC(F)C3)cccc12 (mixture of isomers) [Example 103, rac-{3-[(3S,4R)-4-(dimethylamino)-1-(7-fluoro-2,3-dihydro-1H-inden-1-yl)pyrrolidin-3-yl]-1-methyl-1H-indol-7-yl}(3-fluoroazetidin-1-yl)methanone]	0.00101	0.183	0.0306	0.0648
CN(C)[C@H]1CN(C2CCc3cccc(F)c32)C[C@@H]1C1CCN(c2ccccn2)CC1 (mixture of isomers) [Example 152, rac-(3R,4S)-1-(7-fluoro-2,3-dihydro-1H-inden-1-yl)-N,N-dimethyl-4-[1-(pyridin-2-yl)piperidin-4-yl]pyrrolidin-3-amine]	0.00204	1.79	0.476	0.804
CN(C)C(=O)c1ccc2c([C@H]3CN(C4CCc5cccc(F)c54)C[C@@H]3N(C)C)cn(C)c2c1 (mixture of isomers) [Example 87, rac-3-[(3S,4R)-4-(dimethylamino)-1-(7-fluoro-2,3-dihydro-1H-inden-1-yl)pyrrolidin-3-yl]-N,N,1-trimethyl-1H-indole-6-carboxamide]	0.000481	0.178	0.0626	0.0941
CN(C)[C@H]1CN(C2CCc3cccc(F)c32)C[C@@H]1c1cn(C)c2c(C(=O)N3CCN(S(=O)(=O)N(C)C)CC3)cccc12 (mixture of isomers) [Example 124, rac-4-{3-[(3S,4R)-4-(dimethylamino)-1-(7-fluoro-2,3-dihydro-1H-inden-1-yl)pyrrolidin-3-yl]-1-methyl-1H-indole-7-carbonyl}-N,N-dimethylpiperazine-1-sulfonamide]	0.00156	0.207	0.0864	0.349
CN(C)C(=O)N1CCN(c2ccc([C@H]3CN(C4CCc5cccc(F)c54)C[C@@H]3N(C)C)cc2)CC1 (mixture of isomers) [Example 63, rac-4-{4-[(3S,4R)-4-(dimethylamino)-1-(7-fluoro-2,3-dihydro-1H-inden-1-yl)pyrrolidin-3-yl]phenyl}-N,N-dimethylpiperazine-1-carboxamide]	0.00147	0.191	0.0556	0.0727
CN(C)[C@@H]1CN(C2CCc3cccc(F)c32)C[C@H]1c1ccc2c(c1)OCO2 (mixture of isomers) [Example 65, rac-(3S,4R)-4-(2H-1,3-benzodioxol-5-yl)-1-(7-fluoro-2,3-dihydro-1H-inden-1-yl)-N,N-dimethylpyrrolidin-3-amine]	0.00175	0.306	0.576	0.948
CN(C)[C@H]1CN(C2CCc3cccc(F)c32)C[C@@H]1c1ccc(-c2cnn(CC(N)=O)c2)cc1 (mixture of isomers) [Example 71, rac-2-(4-{4-[(3S,4R)-4-(dimethylamino)-1-(7-fluoro-2,3-dihydro-1H-inden-1-yl)pyrrolidin-3-yl]phenyl}-1H-pyrazol-1-yl)acetamide]	0.00113	0.155	0.0521	0.108
CN(C)[C@H]1CN(C2CCc3cccc(F)c32)C[C@@H]1c1cn(C)c2c(C(=O)N3C[C@H](O)[C@@H](O)C3)cccc12 (mixture of isomers) [Example 113, rac-[(3S,4S)-3,4-dihydroxypyrrolidin-1-yl]{3-[(3S,4R)-4-(dimethylamino)-1-(7-fluoro-2,3-dihydro-1H-inden-1-yl)pyrrolidin-3-yl]-1-methyl-1H-indol-7-yl}methanone]	0.000679	3.28	0.799	0.399
